Measurements reported in article PMC6627067, “Probing Multi-Target Action of Phlorotannins as New Monoamine Oxidase Inhibitors and Dopaminergic Receptor Modulators with the Potential for Treatment of Neuronal Disorders” (Marine Drugs, 2019).
Several values for one entry are separate records, joined by “and”; a condition that tells them apart may be missing. Equal values may be shown once. Read-outs that look alike come from different tables or passages of the source. Blank lines part the entries; values can stand above or below the compound they belong to.

How the values were obtained:
hMAO-A = molecular target: T1, hMAO-A (Homo sapiens, UniProt P21397); test: hMAO-A inhibition, chemiluminescent MAO-Glo assay and kinetic analysis; format: biochemical
T1 sequence (P21397 1-527): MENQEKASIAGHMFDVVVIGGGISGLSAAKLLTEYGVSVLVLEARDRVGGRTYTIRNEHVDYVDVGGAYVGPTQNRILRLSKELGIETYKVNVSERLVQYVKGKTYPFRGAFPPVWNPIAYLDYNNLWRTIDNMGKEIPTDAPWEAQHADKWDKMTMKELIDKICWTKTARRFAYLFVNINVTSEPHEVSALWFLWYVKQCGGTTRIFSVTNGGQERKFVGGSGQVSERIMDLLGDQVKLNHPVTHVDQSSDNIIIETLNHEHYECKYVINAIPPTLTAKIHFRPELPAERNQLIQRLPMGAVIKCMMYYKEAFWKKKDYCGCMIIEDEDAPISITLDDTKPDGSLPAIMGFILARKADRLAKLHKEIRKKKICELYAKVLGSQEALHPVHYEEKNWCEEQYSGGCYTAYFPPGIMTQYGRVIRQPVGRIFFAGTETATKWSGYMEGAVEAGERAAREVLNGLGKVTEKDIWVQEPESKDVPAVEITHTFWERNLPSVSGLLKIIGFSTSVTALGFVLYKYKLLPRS

hMAO-B = molecular target: T2, hMAO-B (Homo sapiens, UniProt P27338); test: hMAO-B inhibition, chemiluminescent MAO-Glo assay and kinetic analysis; format: biochemical
T2 sequence (P27338 1-520): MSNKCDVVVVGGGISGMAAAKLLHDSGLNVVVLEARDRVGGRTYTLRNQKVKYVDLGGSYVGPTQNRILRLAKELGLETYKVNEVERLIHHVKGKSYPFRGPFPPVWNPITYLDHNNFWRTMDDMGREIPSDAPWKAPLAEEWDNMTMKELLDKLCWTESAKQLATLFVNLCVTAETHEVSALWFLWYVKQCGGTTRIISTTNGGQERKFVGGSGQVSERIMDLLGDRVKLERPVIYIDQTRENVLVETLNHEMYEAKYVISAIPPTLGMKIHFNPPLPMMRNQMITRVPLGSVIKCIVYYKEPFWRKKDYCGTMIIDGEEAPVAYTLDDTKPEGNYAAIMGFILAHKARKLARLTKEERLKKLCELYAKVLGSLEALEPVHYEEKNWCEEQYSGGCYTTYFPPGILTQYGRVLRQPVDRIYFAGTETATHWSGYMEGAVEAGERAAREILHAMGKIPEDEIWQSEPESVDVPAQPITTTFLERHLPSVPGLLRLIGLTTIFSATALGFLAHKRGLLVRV

hM5 (CHRM5) = molecular target: T3, hM5 (CHRM5) (Homo sapiens, UniProt P08912); test: GPCR cell-based functional assay, intracellular Ca2+ level, M5
T3 sequence (P08912 1-532): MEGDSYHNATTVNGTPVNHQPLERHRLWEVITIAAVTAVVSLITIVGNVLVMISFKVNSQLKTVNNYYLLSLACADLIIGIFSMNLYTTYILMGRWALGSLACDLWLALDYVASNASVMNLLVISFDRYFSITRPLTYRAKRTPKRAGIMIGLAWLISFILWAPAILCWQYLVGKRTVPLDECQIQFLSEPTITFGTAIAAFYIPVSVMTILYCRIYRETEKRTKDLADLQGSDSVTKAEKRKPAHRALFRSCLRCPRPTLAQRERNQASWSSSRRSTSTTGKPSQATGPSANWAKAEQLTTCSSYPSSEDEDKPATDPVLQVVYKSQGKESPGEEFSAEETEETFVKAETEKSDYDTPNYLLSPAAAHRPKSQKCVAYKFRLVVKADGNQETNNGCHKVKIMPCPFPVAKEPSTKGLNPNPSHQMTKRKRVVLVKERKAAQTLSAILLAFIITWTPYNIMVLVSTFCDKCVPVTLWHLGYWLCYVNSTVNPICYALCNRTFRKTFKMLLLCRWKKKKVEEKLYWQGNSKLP

hNK1 (TACR1) = hNK1 (TACR1) (Homo sapiens, UniProt P25103); test: GPCR cell-based functional assay, intracellular Ca2+ level, NK1
Chain of hNK1 (TACR1) (P25103 whole entry): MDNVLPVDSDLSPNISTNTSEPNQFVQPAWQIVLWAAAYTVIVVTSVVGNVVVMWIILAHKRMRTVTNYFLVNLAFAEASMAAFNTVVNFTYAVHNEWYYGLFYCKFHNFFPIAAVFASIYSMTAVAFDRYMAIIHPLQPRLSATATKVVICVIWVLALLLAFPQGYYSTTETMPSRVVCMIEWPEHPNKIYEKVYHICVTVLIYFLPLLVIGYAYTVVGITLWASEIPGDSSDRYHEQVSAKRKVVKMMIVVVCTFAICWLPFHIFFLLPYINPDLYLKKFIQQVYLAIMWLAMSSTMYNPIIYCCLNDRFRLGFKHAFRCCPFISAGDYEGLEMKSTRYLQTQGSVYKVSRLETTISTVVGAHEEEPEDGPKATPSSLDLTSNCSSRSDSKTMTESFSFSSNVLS

h5-HT1A (HTR1A) = molecular target: T4, h5-HT1A (HTR1A) (Homo sapiens, UniProt P08908); test: GPCR cell-based functional assay, intracellular Ca2+ level, 5-HT1A
T4 sequence (P08908 1-422): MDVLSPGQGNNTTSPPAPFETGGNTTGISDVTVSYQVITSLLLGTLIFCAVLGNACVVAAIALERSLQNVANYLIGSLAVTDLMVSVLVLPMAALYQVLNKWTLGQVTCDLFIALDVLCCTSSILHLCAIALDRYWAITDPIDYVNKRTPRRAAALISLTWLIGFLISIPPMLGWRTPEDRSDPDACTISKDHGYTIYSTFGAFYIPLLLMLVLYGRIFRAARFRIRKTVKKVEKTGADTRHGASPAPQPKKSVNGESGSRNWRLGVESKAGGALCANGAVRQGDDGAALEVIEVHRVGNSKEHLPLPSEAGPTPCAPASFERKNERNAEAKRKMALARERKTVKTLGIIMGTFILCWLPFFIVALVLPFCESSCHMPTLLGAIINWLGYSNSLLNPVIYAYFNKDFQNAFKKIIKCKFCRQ

hV1A (AVPR1A) = hV1A (AVPR1A) (Homo sapiens, UniProt P37288); test: GPCR cell-based functional assay, intracellular Ca2+ level, V1A
Chain of hV1A (AVPR1A) (P37288 whole entry): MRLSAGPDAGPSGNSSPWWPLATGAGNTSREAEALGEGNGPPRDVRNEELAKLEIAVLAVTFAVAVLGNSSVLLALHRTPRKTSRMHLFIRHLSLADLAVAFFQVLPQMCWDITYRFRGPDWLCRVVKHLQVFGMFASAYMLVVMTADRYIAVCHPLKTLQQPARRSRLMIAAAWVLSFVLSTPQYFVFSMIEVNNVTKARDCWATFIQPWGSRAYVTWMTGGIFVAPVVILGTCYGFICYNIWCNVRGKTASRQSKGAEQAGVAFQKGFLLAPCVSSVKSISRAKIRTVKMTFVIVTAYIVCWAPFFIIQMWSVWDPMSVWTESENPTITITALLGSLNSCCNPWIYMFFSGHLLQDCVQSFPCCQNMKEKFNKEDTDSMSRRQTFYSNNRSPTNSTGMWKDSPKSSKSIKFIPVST

hD1 (DRD1) [1] = molecular target: T5, hD1 (DRD1) (Homo sapiens, UniProt P21728); conditions: agonist effect at 100 µM
T5 sequence (P21728 whole entry): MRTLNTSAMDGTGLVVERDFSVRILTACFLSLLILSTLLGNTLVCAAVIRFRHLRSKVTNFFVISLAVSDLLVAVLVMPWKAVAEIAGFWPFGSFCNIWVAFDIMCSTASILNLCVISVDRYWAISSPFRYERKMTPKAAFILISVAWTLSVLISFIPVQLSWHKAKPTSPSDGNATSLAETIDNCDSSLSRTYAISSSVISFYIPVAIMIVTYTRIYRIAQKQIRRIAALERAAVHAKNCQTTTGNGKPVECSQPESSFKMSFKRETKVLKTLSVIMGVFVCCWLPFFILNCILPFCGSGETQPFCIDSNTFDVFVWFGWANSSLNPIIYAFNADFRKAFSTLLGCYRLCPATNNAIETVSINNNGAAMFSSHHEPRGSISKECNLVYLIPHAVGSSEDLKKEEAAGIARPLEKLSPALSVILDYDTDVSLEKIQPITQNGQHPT

hD3 (DRD3) [2] = molecular target: T6, hD3 (DRD3) (Homo sapiens, UniProt P35462); conditions: agonist effect at 100 µM
T6 sequence (P35462 whole entry): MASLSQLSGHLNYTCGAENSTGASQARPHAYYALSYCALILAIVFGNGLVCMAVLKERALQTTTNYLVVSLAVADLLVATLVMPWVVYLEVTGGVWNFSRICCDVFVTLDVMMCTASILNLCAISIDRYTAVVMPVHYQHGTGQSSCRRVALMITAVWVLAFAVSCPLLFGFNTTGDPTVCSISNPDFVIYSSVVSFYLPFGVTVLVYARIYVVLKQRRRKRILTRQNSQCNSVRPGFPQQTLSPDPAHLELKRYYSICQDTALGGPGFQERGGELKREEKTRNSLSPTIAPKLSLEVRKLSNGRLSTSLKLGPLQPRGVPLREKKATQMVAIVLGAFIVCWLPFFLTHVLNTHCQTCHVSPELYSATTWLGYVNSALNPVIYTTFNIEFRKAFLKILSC

hD1 (DRD1) [3] = molecular target: T5, hD1 (DRD1); test: cell-based; conditions: read-out: % Inhibition of control agonist response, hD1
hD3 (DRD3) [4] = molecular target: T6, hD3 (DRD3); test: cell-based
hD4 (DRD4) = molecular target: T7, hD4 (DRD4) (Homo sapiens, UniProt P21917)
T7 sequence (P21917 1-419): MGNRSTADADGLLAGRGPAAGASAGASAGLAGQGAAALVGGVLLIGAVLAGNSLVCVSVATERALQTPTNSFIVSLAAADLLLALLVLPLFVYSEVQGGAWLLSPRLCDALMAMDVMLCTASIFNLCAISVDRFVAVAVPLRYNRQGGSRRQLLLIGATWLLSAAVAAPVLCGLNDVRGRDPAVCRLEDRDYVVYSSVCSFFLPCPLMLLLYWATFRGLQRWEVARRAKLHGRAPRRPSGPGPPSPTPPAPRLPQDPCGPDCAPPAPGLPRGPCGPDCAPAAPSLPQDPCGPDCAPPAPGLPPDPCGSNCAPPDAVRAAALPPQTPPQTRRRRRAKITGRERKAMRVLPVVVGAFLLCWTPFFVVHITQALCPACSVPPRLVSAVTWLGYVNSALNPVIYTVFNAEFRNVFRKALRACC

[5] = Kiu from secondary plot of 1/Vmaxapp versus concentration
[6] = Lineweaver-Burk plots, NC = noncompetitive
[7] = recombinant hMAO-B, mean ± SD, n = 3

- Ki (hMAO-A; [5]): 5.18 µM
- Inhibition type hMAO-A (hMAO-A; [6]): noncompetitive
- SI (selective index) (hMAO-A; ratio of hMAO-A IC50/hMAO-B IC50): 1.89
- IC50 (hMAO-A; recombinant hMAO-A, mean ± SD, n = 3, read-out: IC50 hMAO-A): 9.22 ± 0.19 µM
- Ki (hMAO-B; [5]): 2.69 µM
- Inhibition type hMAO-B (hMAO-B; [6]): noncompetitive
- IC50 (hMAO-B; [7]): 4.89 ± 0.32 µM
- % Stimulation of control agonist response, hM5 (hM5 (CHRM5); agonist effect at 100 µM): 29.20 ± 10.75 ^A %
- inhibition at 100 µM (hM5 (CHRM5); antagonist effect at 100 µM, read-out: % Inhibition of control agonist response, hM5): 56%
- % Stimulation of control agonist response, hNK1 (hNK1 (TACR1); agonist effect at 100 µM): 67.65 ± 9.26 ^A %
- inhibition at 100 µM (hNK1 (TACR1); antagonist effect at 100 µM, read-out: % Inhibition of control agonist response, hNK1): 88.2%
- % Stimulation of control agonist response, h5-HT1A (h5-HT1A (HTR1A); agonist effect at 100 µM): 1.65 ± 0.49 ^A %
- inhibition at 100 µM (h5-HT1A (HTR1A); antagonist effect at 100 µM, read-out: % Inhibition of control agonist response, h5-HT1A): 62.5%
- % Stimulation of control agonist response, hV1A (hV1A (AVPR1A); agonist effect at 100 µM): 38.45 ± 7.14 ^B %
- inhibition at 100 µM (hV1A (AVPR1A); antagonist effect at 100 µM, read-out: % Inhibition of control agonist response, hV1A): 52.9%
- % Stimulation of control agonist response, hD1 (hD1 (DRD1) [1]): 0.25 ± 3.18 ^A %
- % Stimulation of control agonist response, hD3 (hD3 (DRD3) [2]): 98.57 ± 2.14% and 98.57 ± 2.14 ^A %
- inhibition at 100 µM (hD1 (DRD1) [3]): 81.4%
- EC50 (hD3 (DRD3) [4]): 19.2 ± 0.48 µM
- inhibition at 100 µM (hD3 (DRD3) [4]; read-out: % Inhibition of control agonist response, hD3): -15.2%
- EC50 (hD4 (DRD4)): 23.5 ± 1.55 µM
- % Stimulation of control agonist response, hD4 (hD4 (DRD4); agonist effect at 100 µM): 98.50 ± 12.50% and 98.50 ± 12.50 ^A %
- inhibition at 100 µM (hD4 (DRD4); read-out: % Inhibition of control agonist response, hD4): -26.1%
Compound: Oc1cc(O)cc(Oc2c(O)cc(O)c3c2Oc2c(O)cc4oc5c(Oc6cc(O)cc(O)c6)c(O)cc(O)c5c4c2O3)c1 [PFF-A, phlorofucofuroeckol-A]

Compound: Oc1cc(O)c2oc3cc(O)c4oc5cc(O)cc(O)c5oc4c3oc2c1 [Dioxinodehydroeckol, dioxinodehydroeckol]
- IC50 (hMAO-A): > 300 µM
- IC50 hMAO-A (hMAO-A; recombinant hMAO-A, mean ± SD, n = 3): no inhibitory activity
- IC50 (hMAO-B; [7]): > 300 µM
- IC50 hMAO-B (hMAO-B; [7]): no inhibitory activity
